Measured values published in ChEMBL document CHEMBL1201862, “PubChem BioAssay data set” (2004).
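The compound was tested at five concentrations on cells cultured in 96-well plates, with a 48-hour exposure period. GI50 marks 50% less growth.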 The source made the active and inactive calls. Rule as the data show it: active = GI50 up to about 1.1 µM and inactive = higher.

Columns and labels:
Assay in all cases: NCI-60 cell line screen, 48 h
[1] = tested on: ACHN
[2] = tested on: OVCAR-8
[3] = tested on: HL-60
[4] = tested on: CAKI-1
[5] = tested on: UACC-62
[6] = tested on: NCI-H522
[7] = tested on: SNB-75
[8] = tested on: CCRF-CEM
[9] = tested on: MOLT-4
[10] = tested on: OVCAR-5
[11] = tested on: HCC 2998
[12] = tested on: A549
[13] = tested on: SNB-19
[14] = tested on: OVCAR-3
[15] = tested on: U-251
[16] = tested on: 786-0
[17] = tested on: M14
[18] = tested on: UACC-257
[19] = tested on: NCI-H23

Measured: GI50

COc1ccc2[nH]c3c(C)c4c(c(C)c3c2c1)CN(C)CC4
inactive: [1] 18.8 µM | [2] 11.9 µM | [3] 2.09 µM | [4] 18.5 µM | [5] 19.2 µM | [6] 18 µM | [7] 18 µM | [8] 3.22 µM | [9] 18.5 µM | [10] 23.7 µM | [11] 16.9 µM | [12] 17.7 µM | [13] 17.3 µM | [14] 16 µM | [15] 17.7 µM | [16] 14.6 µM | [17] 16.3 µM | [18] 17.7 µM

Oc1cc(CN2CCOCCOCCOCCOCC2)c(O)cc1CN1CCOCCOCCOCCOCC1
inactive: [1] 23.9 µM | [19] > 78.5 µM | [2] 40.5 µM | [3] 23.8 µM | [4] 18.1 µM | [5] 29.2 µM | [6] 11.8 µM | [7] > 78.7 µM | [8] 18.6 µM | [9] 24.3 µM | [10] 22.8 µM | [11] > 100 µM | [12] > 100 µM | [13] > 100 µM | [14] 61.8 µM | [15] > 41.5 µM | [16] 27.2 µM | [17] 18.3 µM | [18] > 100 µM

N#Cc1cc(NC(=O)c2ccccc2)c(=O)n2c1[nH]c1ccccc12
inactive: [1] 29.9 µM | [19] 20 µM | [2] 38.3 µM | [3] 26.4 µM | [4] 35.9 µM | [5] 17.4 µM | [6] 11 µM | [7] 25.9 µM | [8] 37.8 µM | [9] 29.6 µM | [11] 28.8 µM | [12] 24.5 µM | [13] 23.4 µM | [14] 28.2 µM | [15] 26.9 µM | [16] 37.2 µM | [17] 27.3 µM | [18] 33 µM

O=C(O)c1cc(=O)c2[nH]c3ccccc3c2s1
inactive: [1] > 100 µM | [19] > 100 µM | [2] > 100 µM | [3] > 100 µM | [4] > 100 µM | [5] > 100 µM | [6] > 100 µM | [7] 41.4 µM | [8] > 100 µM | [9] > 100 µM | [10] > 100 µM | [11] > 100 µM | [12] > 100 µM | [13] > 100 µM | [14] > 100 µM | [16] > 100 µM | [17] > 100 µM | [18] > 100 µM

C(=C1/CCCCC([n+]2ccccc2)=N1)/c1ccccc1
inactive: [1] > 100 µM | [19] > 100 µM | [2] > 100 µM | [3] > 100 µM | [4] > 100 µM | [5] > 100 µM | [6] > 100 µM | [7] > 100 µM | [8] > 100 µM | [9] > 100 µM | [10] > 100 µM | [11] > 100 µM | [12] > 100 µM | [14] > 100 µM | [15] > 100 µM | [16] > 100 µM | [17] > 100 µM

O=C1OC(c2ccccc2)=N/C1=C/NC(CO)C(=O)O (stereo not given)
inactive: [1] > 100 µM | [19] > 100 µM | [2] > 100 µM | [3] > 100 µM | [4] > 100 µM | [5] > 100 µM | [6] > 100 µM | [7] > 100 µM | [8] > 100 µM | [10] > 100 µM | [11] > 100 µM | [12] > 100 µM | [13] 48.9 µM | [14] > 100 µM | [15] > 100 µM | [16] > 100 µM | [17] > 100 µM | [18] > 100 µM

Clc1ccc2c(Cl)ncnc2c1
inactive: [1] > 100 µM | [19] > 100 µM | [2] > 100 µM | [3] > 100 µM | [4] > 100 µM | [5] > 100 µM | [6] > 100 µM | [7] 42.8 µM | [8] > 100 µM | [9] > 100 µM | [10] > 100 µM | [11] > 100 µM | [12] > 100 µM | [13] > 100 µM | [14] > 100 µM | [15] > 100 µM | [16] > 100 µM | [17] > 100 µM | [18] > 100 µM

CCOC(=O)C1CC/C(=C(/C#N)C(=O)OC)N1 (stereo not given)
inactive: [1] > 100 µM | [19] > 100 µM | [2] > 100 µM | [3] > 100 µM | [4] > 100 µM | [5] 31.8 µM | [6] > 100 µM | [7] > 100 µM | [8] > 100 µM | [9] > 100 µM | [11] > 100 µM | [12] > 100 µM | [13] > 100 µM | [14] > 100 µM | [15] > 100 µM | [16] > 100 µM | [17] > 100 µM | [18] > 100 µM
